# Measured values published in PMC7970697, “Inhibition and Induction by Poziotinib of Different Rat Cytochrome P450 Enzymes In Vivo and in an In Vitro Cocktail Method” (Frontiers in Pharmacology, 2021).
# Assay: Pharmacokinetics of probe substrates in rats with or without poziotinib pre-treatment
# Details: for CL/F: CLz/F; for MRT last: MRT(0–t); for MRT inf: MRT(0–∞); for Vd/F: Vz/F; for half-life: t1/2z
# Experimental: Samples were analyzed by a UPLC-MS/MS system equipped with a triple quadrupole mass spectrometer (Waters Corp., Milford, MA, United States) and Acquity UPLC BEH C18 column (1.7 μm, 2.1 × 50 mm) at 40°C. The mobile phase consisted of acetonitrile (A) and 0.1% formic acid (B) with a linear gradient elution at 0.4 ml/min for 3 min.
# Twelve male Sprague-Dawley rats (230 ± 20 g) were randomly divided into treated and control groups, with 6 in each group. […] The supernatant was mixed with 200 μL of acetonitrile and 20 μL of 0.5 μg/ml diazepam (IS), vortexed for 30 s, centrifuged at 13,000 rpm for 5 min, and the supernatant was injected into the UPLC-MS/MS system for analysis.
# Pharmacokinetic parameters were calculated using DAS software (Version 3.2.8). SPSS software (version 16.0; SPSS Inc., Chicago, IL, United States) was used to analyze the significance of differences between the main pharmacokinetic parameters. p < 0.05 was considered statistically significant. GraphPad (version 8.0; GraphPad Software Inc., San Diego, CA, United States) was used to calculate IC50 and plot the plasma concentration-time curves and inhibition plots (type of inhibition, time- and concentration-dependence).
# [1] = male, Sprague-Dawley, rat, in vivo, po, Control group: oral probe cocktail only (10 mg/kg; tolbutamide 1 mg/kg), rats, n = 6
# [2] = male, Sprague-Dawley, rat, in vivo, po, Treated group: oral probe cocktail (10 mg/kg; tolbutamide 1 mg/kg) after 7 days oral poziotinib 5 mg/kg, rats, n = 6
# [3] = rats, poziotinib 5 mg/kg 7 days vs probes only
# [4] = male, Sprague-Dawley, rat, in vivo, po, 10 mg/kg, Control group: oral probe cocktail only (10 mg/kg; tolbutamide 1 mg/kg), rats, n = 6
# [5] = male, Sprague-Dawley, rat, in vivo, po, 10 mg/kg, Treated group: oral probe cocktail (10 mg/kg; tolbutamide 1 mg/kg) after 7 days oral poziotinib 5 mg/kg, rats, n = 6
# [6] = male, Sprague-Dawley, rat, in vivo, po, 10 mg/kg
# [7] = male, Sprague-Dawley, rat, plasma, po, 10 mg/kg, Control group: oral probe cocktail only (10 mg/kg; tolbutamide 1 mg/kg), rats, n = 6
# [8] = male, Sprague-Dawley, rat, plasma, po, 10 mg/kg, Treated group: oral probe cocktail (10 mg/kg; tolbutamide 1 mg/kg) after 7 days oral poziotinib 5 mg/kg, rats, n = 6
# [9] = male, Sprague-Dawley, rat, in vivo, po
# [10] = male, Sprague-Dawley, rat, plasma, po, Control group: oral probe cocktail only (10 mg/kg; tolbutamide 1 mg/kg), rats, n = 6
# [11] = rats, poziotinib 5 mg/kg 7 days vs probes only (Discussion)
smiles,measurement,setting,value
COc1ccc2c(c1)[C@]13CCCC[C@@H]1[C@H](C2)N(C)CC3 [Dextromethorphan],AUC(0-t),"male, Sprague-Dawley, rat, in vivo, po, AUC(0–t), Control group: oral probe cocktail only (10 mg/kg; tolbutamide 1 mg/kg), rats, n = 6",575 ± 77.7 ng·h/mL
same,AUC(0-t),"male, Sprague-Dawley, rat, in vivo, po, AUC(0–t), Treated group: oral probe cocktail (10 mg/kg; tolbutamide 1 mg/kg) after 7 days oral poziotinib 5 mg/kg, rats, n = 6",640 ± 197 ng·h/mL
same,AUC(0-inf),[1],586 ± 79.3 ng·h/mL
same,AUC(0-inf),[2],722 ± 231 ng·h/mL
same,CL/F,[1],289 mL/min/kg
same,CL/F,[2],250 mL/min/kg
same,Cmax,"male, Sprague-Dawley, rat, in vivo, po, Cmax, Control group: oral probe cocktail only (10 mg/kg; tolbutamide 1 mg/kg), rats, n = 6",152 ± 57.7 ng/mL
same,Cmax,"male, Sprague-Dawley, rat, in vivo, po, Cmax, Treated group: oral probe cocktail (10 mg/kg; tolbutamide 1 mg/kg) after 7 days oral poziotinib 5 mg/kg, rats, n = 6",153 ± 42.3 ng/mL
same,MRT last,[1],3.12 ± 0.37 h
same,MRT last,[2],3.54 ± 0.51 h
same,MRT inf,[1],3.35 ± 0.47 h
same,MRT inf,[2],5.19 ± 2.68 h
same,Tmax,"male, Sprague-Dawley, rat, in vivo, po, Tmax, Control group: oral probe cocktail only (10 mg/kg; tolbutamide 1 mg/kg), rats, n = 6",1.04 ± 0.56 h
same,Tmax,"male, Sprague-Dawley, rat, in vivo, po, Tmax, Treated group: oral probe cocktail (10 mg/kg; tolbutamide 1 mg/kg) after 7 days oral poziotinib 5 mg/kg, rats, n = 6",1.58 ± 0.92 h
same,Vd/F,[1],49 ± 10.7 L/kg
same,Vd/F,[2],75.5 ± 33.1 L/kg
same,half-life,[1],1.98 ± 0.43 h
same,half-life,[2],3.72 ± 2.09 h
same,difference in main pharmacokinetic parameters between treated and control group (in words),[3],no significant differences
Cc1ncc2n1-c1ccc(Cl)cc1C(c1ccccc1F)=NC2 [Midazolam],AUC(0-t),"male, Sprague-Dawley, rat, in vivo, po, 10 mg/kg, AUC(0–t), Control group: oral probe cocktail only (10 mg/kg; tolbutamide 1 mg/kg), rats, n = 6",1350 ng·h/mL
same,AUC(0-t),"male, Sprague-Dawley, rat, in vivo, po, 10 mg/kg, AUC(0–t), Treated group: oral probe cocktail (10 mg/kg; tolbutamide 1 mg/kg) after 7 days oral poziotinib 5 mg/kg, rats, n = 6",1280 ng·h/mL
same,AUC(0-inf),[4],1360 ng·h/mL
same,AUC(0-inf),[5],1310 ng·h/mL
same,CL/F,[4],128 mL/min/kg
same,CL/F,[5],139 mL/min/kg
same,Cmax,"male, Sprague-Dawley, rat, in vivo, po, 10 mg/kg, Cmax, Control group: oral probe cocktail only (10 mg/kg; tolbutamide 1 mg/kg), rats, n = 6",868 ± 251 ng/mL
same,Cmax,"male, Sprague-Dawley, rat, in vivo, po, 10 mg/kg, Cmax, Treated group: oral probe cocktail (10 mg/kg; tolbutamide 1 mg/kg) after 7 days oral poziotinib 5 mg/kg, rats, n = 6",582 ± 296 ng/mL
same,MRT last,[4],1.58 ± 0.23 h
same,MRT last,[5],2.01 ± 0.43 h
same,MRT inf,[4],1.62 ± 0.24 h
same,MRT inf,[5],2.44 ± 1.12 h
same,Tmax,"male, Sprague-Dawley, rat, in vivo, po, 10 mg/kg, Tmax, Control group: oral probe cocktail only (10 mg/kg; tolbutamide 1 mg/kg), rats, n = 6",0.33 ± 0.13 h
same,Tmax,"male, Sprague-Dawley, rat, in vivo, po, 10 mg/kg, Tmax, Treated group: oral probe cocktail (10 mg/kg; tolbutamide 1 mg/kg) after 7 days oral poziotinib 5 mg/kg, rats, n = 6",0.58 ± 0.34 h
same,Vd/F,[4],18.6 ± 5.95 L/kg
same,Vd/F,[5],32.8 ± 20.8 L/kg
same,half-life,[4],1.7 ± 0.55 h
same,half-life,[5],2.67 ± 1.39 h
same,difference in main pharmacokinetic parameters between treated and control group (in words),[3],not significant
CCOc1ccc(NC(C)=O)cc1 [Phenacetin],Cmax,"Control group: oral probe cocktail only (10 mg/kg; tolbutamide 1 mg/kg), rats, n = 6","2,869.22 ± 783.32 µg/L"
same,AUC(0-t),[6],6320 ng·h/mL
same,MRT(0–t),[6],1.46 ± 0.22 h
same,Tmax,[6],0.75 ± 0.27 h
same,t1/2z,[6],0.55 ± 0.15 h
same,MRT last,[6],1.41 ± 0.13 h
same,MRT inf,[6],1.46 ± 0.15 h
same,Tmax,"male, Sprague-Dawley, rat, in vivo, po, 10 mg/kg, Tmax",0.54 ± 0.25 h
same,half-life,[6],0.8 ± 0.12 h
same,AUC(0-t),"male, Sprague-Dawley, rat, plasma, po, 10 mg/kg",2770 ng·h/mL
same,CL/F,[7],30.7 mL/min/kg
same,CL/F,[8],66.5 mL/min/kg
same,Cmax,"male, Sprague-Dawley, rat, plasma, po, 10 mg/kg, Cmax, Treated group: oral probe cocktail (10 mg/kg; tolbutamide 1 mg/kg) after 7 days oral poziotinib 5 mg/kg, rats, n = 6",1490 ng/mL
same,Vd/F,[7],1.57 ± 0.9 L/kg
same,Vd/F,[8],4.77 ± 2.26 L/kg
same,"AUC (0–t) reduced by, treated vs control group",[3],56.08%
same,"AUC (0–∞) reduced by, treated vs control group",[3],55.81%
same,"CLz/F increased by, treated vs control group",[3],116.85%
same,"Cmax reduced by, treated vs control group",[3],48.06%
same,"Vz/F increased by, treated vs control group",[3],203.82%
same,"t1/2 increased by, treated vs control group",[3],45.45%
CCCCNC(=O)NS(=O)(=O)c1ccc(C)cc1 [Tolbutamide],Tmax,[9],2.67 ± 0.52 h
same,t1/2z,[9],9.10 ± 4.20 h
same,Tmax,"male, Sprague-Dawley, rat, in vivo, po, Tmax",2.33 ± 0.52 h
same,half-life,[9],12.7 ± 4.84 h
same,CL/F,[10],0.333 mL/min/kg
same,Cmax,"male, Sprague-Dawley, rat, plasma, po, Cmax, Control group: oral probe cocktail only (10 mg/kg; tolbutamide 1 mg/kg), rats, n = 6",3700 ng/mL
same,Cmax,"male, Sprague-Dawley, rat, plasma, po, Cmax, Treated group: oral probe cocktail (10 mg/kg; tolbutamide 1 mg/kg) after 7 days oral poziotinib 5 mg/kg, rats, n = 6",4920 ng/mL
same,Vd/F,[10],0.27 ± 0.04 L/kg
same,Vd/F,"male, Sprague-Dawley, rat, plasma, po, Treated group: oral probe cocktail (10 mg/kg; tolbutamide 1 mg/kg) after 7 days oral poziotinib 5 mg/kg, rats, n = 6",0.25 ± 0.1 L/kg
same,"AUC (0–∞) increasing by, treated vs control group",[3],51.60%
same,CLz/F lower than control group by,[3],50%
same,AUC(0–t) of treated group as fold of control group value,[11],1.43 fold
same,CLz/F of treated group as fold of control group value,[11],0.5 fold
